In ChEMBL document CHEMBL4308917, “Tripeptide analogues of MG132 as protease inhibitors” (Bioorg Med Chem, 2019):
Residues, ends and D or L forms follow the SMILES beside them. *: point of attachment. Cbz = O=C(OCc1ccccc1)*

How the values were obtained:
[1] = Selectivity ratio of IC50 for chymotrypsin like activity of rabbit 20S proteasome beta 5 to IC50 for recombinant ovine lung calpain 2 protease
[2] = system: Plasmodium falciparum; experiment: Antiplasmodial activity against Plasmodium falciparum D10 cultured in human O+ erythrocytes after 50 to 60 hrs by ethidium bromide staining-based flow cytometric analysis; type: functional, organism-based
[3] = Inhibition of chymotrypsin like activity of rabbit 20S proteasome beta 5 subunit using Suc-LLVY-AMC as substrate preincubated for 15 mins followed by substrate addition and measured after 2 hrs by fluorescence assay; parameters: species or system Oryctolagus cuniculus
[4] = target: T1, Proteasome Macropain subunit MB1 (Homo sapiens) (UniProt P28074); experiment: Ratio of test compound IC50 to MG132 IC50 for chymotrypsin like activity of 26S proteasome beta 5 subunit (unknown origin) by fluorescence assay
T1 sequence (whole entry): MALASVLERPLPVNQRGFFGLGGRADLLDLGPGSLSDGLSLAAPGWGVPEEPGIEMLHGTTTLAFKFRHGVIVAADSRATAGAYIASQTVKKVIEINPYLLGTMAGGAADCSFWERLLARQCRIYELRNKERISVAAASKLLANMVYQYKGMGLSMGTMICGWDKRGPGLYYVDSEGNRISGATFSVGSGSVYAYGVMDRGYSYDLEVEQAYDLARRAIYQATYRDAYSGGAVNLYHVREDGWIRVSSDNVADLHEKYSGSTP

[5] = Inhibition of recombinant ovine lung calpain-2 protease using BODIPY-FL casein as substrate after 10 mins by fluorescence-based assay; parameters: species or system Ovis aries
[6] = Inhibition of recombinant ovine lung calpain-2 protease using BODIPY-FL casein as substrate measured at 30 secs time interval for 30 mins by fluorescence-based assay; parameters: species or system Ovis aries
[7] = Inhibition of recombinant ovine lung calpain-1 protease using BODIPY-FL casein as substrate measured at 30 secs time interval for 30 mins by fluorescence-based assay; parameters: species or system Ovis aries
[8] = target: T2, Proteasome Macropain subunit MB1 (Homo sapiens, UniProt P28074); experiment: Inhibition of chymotrypsin like activity of 26S proteasome beta 5 subunit (unknown origin) by fluorescence assay
T2 sequence (P28074 whole entry): T1 sequence (whole entry)

[9] = Selectivity ratio of IC50 for chymotrypsin like activity of 26S proteasome beta 5 subunit (unknown origin) to IC50 for recombinant ovine lung calpain 2 protease
[10] = target: T3, Calpain-2 catalytic subunit (Sus scrofa, UniProt P43367); experiment: Inhibition of recombinant porcine calpain 2 protease using BODIPY-FL casein as substrate measured at 30 secs time interval for 30 mins by fluorescence-based assay
T3 sequence (P43367 whole entry): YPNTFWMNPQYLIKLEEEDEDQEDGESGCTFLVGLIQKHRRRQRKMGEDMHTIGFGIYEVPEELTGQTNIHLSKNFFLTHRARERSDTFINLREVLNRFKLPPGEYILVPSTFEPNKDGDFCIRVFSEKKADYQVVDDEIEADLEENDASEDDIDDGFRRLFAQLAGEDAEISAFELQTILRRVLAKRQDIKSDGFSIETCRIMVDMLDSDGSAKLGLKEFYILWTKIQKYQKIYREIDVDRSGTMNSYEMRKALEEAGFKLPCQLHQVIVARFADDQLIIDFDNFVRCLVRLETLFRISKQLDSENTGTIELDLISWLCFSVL

[11] = species: Ovis aries; experiment: Potency index, ratio of MG132 IC50 to test compound IC50 for recombinant ovine lung calpain-2 protease using BODIPY-FL casein as substrate measured at 30 secs time interval for 30 mins by fluorescence-based assay

| Compound | Ratio IC50 [1] | IC50 [2] | IC50 [3] | Ratio IC50 [4] | IC50 [5] | IC50 [6] | IC50 [7] | IC50 [8] | Ratio IC50 [9] | IC50 [10] | Ratio IC50 [11] |
| --- | --- | --- | --- | --- | --- | --- | --- | --- | --- | --- | --- |
| C#CCOc1ccc(C[C@@H](C=O)NC(=O)[C@@H](NC(=O)[C@H](CCCCN=[N+]=[N-])NC(=O)OCc2ccccc2)[C@@H](C)CC)cc1 | 0.05 | 0.146 µM | 0.02 µM | 16 to 428 | 0.39 µM |  |  |  |  |  |  |
| CC(C)C[C@@H](C=O)NC(=O)[C@H](CO)NC(=O)[C@H](CC(C)C)NC(=O)OCc1ccccc1 (Cbz-Leu-Ser-Leu-aldehyde) |  | 0.213 µM |  | 16 to 428 |  | 0.099 µM | 0.04 µM | 0.269 µM | 2.7 | 0.16 µM | > 3 |
| CC(C)C[C@H](NC(=O)[C@H](Cc1ccccc1)NC(=O)OCc1ccccc1)C(=O)N[C@H](C=O)Cc1ccccc1 (Cbz-Phe-Leu-Phe-aldehyde) |  | 0.191 µM |  | 16 to 428 |  | 0.006 µM | 0.051 µM | 0.514 µM | 86 | 0.027 µM | > 3 |
| CC(C)C[C@@H](C=O)NC(=O)[C@H](CC(C)C)NC(=O)[C@H](CC(C)C)NC(=O)OCc1ccccc1 [MG-132] (Cbz-Leu-Leu-Leu-aldehyde) |  | 0.035 µM |  |  |  | 0.311 µM | 0.12 µM |  |  |  |  |

More lines, in order of falling IC50 [2], values ahead:

| Ratio IC50 [1] | IC50 [2] | IC50 [3] | Ratio IC50 [4] | IC50 [5] | IC50 [6] | IC50 [7] | IC50 [8] | Ratio IC50 [9] | IC50 [10] | Ratio IC50 [11] | Compound |
| --- | --- | --- | --- | --- | --- | --- | --- | --- | --- | --- | --- |
|  | 6.13 µM |  | 16 to 428 |  | 4.4 µM | 9.8 µM | 0.22 µM | 0.05 | 4.2 µM |  | CC(C)C[C@H](NC(=O)OCc1ccccc1)C(=O)N[C@@H](CC(C)C)C(=O)N[C@@H](CC(C)C)C(=O)[C@@]1(C)CO1 |
| 0.15 | 0.561 µM | 0.15 µM | 16 to 428 | 1.03 µM |  |  |  |  |  |  | C#CCOc1ccc(C[C@@H](C=O)NC(=O)[C@H](CC(C)C)NC(=O)[C@H](CCCCN=[N+]=[N-])NC(=O)OCc2ccccc2)cc1 |
|  | 0.25 µM |  | 16 to 428 |  | 0.013 µM | 0.081 µM | 0.189 µM | 14 | 0.034 µM | > 3 | C#CCOc1ccc(C[C@@H](C=O)NC(=O)[C@H](CC(C)C)NC(=O)[C@H](Cc2ccccc2)NC(=O)OCc2ccccc2)cc1 |
|  | 0.062 µM |  | 16 to 428 |  | 0.011 µM | 0.008 µM | 0.139 µM | 13 | 0.006 µM | > 3 | CC(C)C[C@@H](C=O)NC(=O)[C@H](CC(C)C)NC(=O)[C@H](Cc1ccccc1)NC(=O)OCc1ccccc1 (Cbz-Phe-Leu-Leu-aldehyde) |
